# Data from US20100168112A1, “2-Substituted and 4-substituted aryl nitrone compounds” (RENOVIS, INC., priority 2004, published 2010).
# Counter-ions that a name gives are not always drawn.
# Tests used:
# [1] = DPPH free radical-scavenging/antioxidant assay; assay type: biochemical; conditions: 50 μM DPPH in 80% methanol; 24 h time point; read-out: EC50 (concentration at which a compound reduces by 50% the peak absorbance of DPPH at 520 nm)
# Method: Nitrone compounds of the present invention were tested for their free-radical scavenging/antioxidant activity in an in vitro assay that is accepted by those skilled in the art as a model for conditions involving the generation of free radicals. The assay is based on a reaction between a free-radical donor, 2,2-diphenyl-1-picrylhydrazyl (DPPH), and a radical scavenger/antioxidant to be tested for free-radical scavenging activity. Upon donation of the free-radical electron to the purported radical scavenger, the peak visible absorbance of DPPH (515-520 nm) decreases so that optical density readings at this part of the visual spectrum reflect the progression of the following reaction:
# where AH is a hypothetical radical scavenger/antioxidant. The assay is based on a protocol originally detailed in Brand-Williams, W. et al., 1995, Use of a Free Radical Method to Evaluate Antioxidant Activity, Lebensm. Wiss. Technol., 28:25-30, with further modifications described in L. R. Fukumoto and G. Mazza, 2000, Assessing Antioxidant and Prooxidant Activities of Phenolic Compounds, J. Agric. Food Chem., 48:3597-3604.
# The antioxidant assay was performed using Perkin-Elmer 96-well, clear-bottom, black-wall plates (ordered from E & K Scientific Products) and a Tecan Safire absorbance plate reader. The positive controls were Trolox (6-hydroxy-2,5,7,8-tetramethylchromane-2-carboxylic acid, Sigma-Aldrich), BHA (2(3)-tert-butylhydroquinone monomethyl ether, Sigma-Aldrich), PBN (C-(phenyl)-N-(tert-butyl)nitrone, Sigma-Aldrich) and S-PBN (C-(2-sulfophenyl)-N-(tert-butyl)nitrone, sodium salt, prepared according to E. G. Janzen and R. V. Shetty, 1979, Tetrahedron Lett., 35: 3229-32), and the negative control (i.e., vehicle) was DMSO. In brief, 2 μL of 100× DMSO stock of the desired final concentration of each control or nitrone compound to be tested in the same batch was added to a separate well. To each well was then added 198 μL of a freshly made 50 μM DPPH (Sigma-Aldrich) solution in 80% methanol using a multi-channel pipette. The absorbance was immediately read on the plate reader at 520 nm and thereafter read periodically to assess kinetics until all reactions reached completion (i.e., steady state). Since the steady-state point was 24 h, the assay results are shown from the 24 h time point. The absorbance at 520 nm (OD) was plotted versus the concentrations of the controls and nitrone compounds to assess dose-response and interpolate the EC50 values of the controls and test compounds.
# [2] = Pharmacokinetic evaluation following intravenous and oral administration in rats; assay type: in vivo; conditions: male, Sprague-Dawley; for Cmax / Tmax / bioavailability: 5 mg/kg; for Cmax: rat plasma; for Cmax / Tmax: oral gavage, 2 mg/mL at 2.5 mL/kg; for clearance / Vd / Tmax / bioavailability / half-life: plasma, rat; for clearance / Vd / half-life: 1 mg/kg; for clearance / Vd: intravenous administration, 1 mg/mL at 1.0 mL/kg; for clearance: read-out: CI (clearance) (converted); for Vd: read-out: Vd (volume of distribution); for bioavailability: po 2 mg/mL at 2.5 mL/kg vs iv 1 mg/mL at 1.0 mL/kg, dose-normalized, read-out: F (%) oral bioavailability; for half-life: intravenous, read-out: T1/2 elimination half life (converted)
# Method: Male Sprague-Dawley rats were given at least 24 hours acclimation before experiment initiation. During acclimation period, all animals received food and water ad libitum. However, food (not water) was removed from the animal's cages up to 12 hours before initiation of the experiment. During the first 4 hours of experimentation, the animals received only water ad libitum. Two to three animals for iv and three animals for oral administration were tested. For iv formulation nitrone compounds of this invention were dissolved (1 mg/mL) in a mixture of 5% dimethyl acetamide (v/v), 0 to 4% Tween 80 (v/v), 10 to 40% PEG 400 (v/v) and the rest percentage of water (v/v). For oral formulation nitrone compounds of this invention were dissolved (2 mg/mL) in a mixture of 4% of 10% Tween in water and 96% of 0.5% carboxymethyl cellulose (medium viscosity) in water; or 4% of 10% Tween in water, 48% of 0.5% carboxymethyl cellulose (medium viscosity) in water, and 48% of 0.5% Hydroxypropyl Methylcellulose/0.2% Sodium Lauryl Sulfate in water. These formulations were stored at 5° C. until the experiment. Formulations were then stir-mixed at least half an hour before dosing. Exactly 200 μL of each left-over formulation was diluted with CH3CN/H2O for concentration analysis. The animals were weighed before dosing. The body weight was used to calculate the true dose for each animal:
# IV dosing: • Dose volume (mL)=1.0 mL/kg The intravenous dose was administered through the jugular vein catheter or tail vein in less than 1 minute.
# PO dosing: • Dose volume (mL)=2.5 mL/kg The oral dose was administered by oral gavage.
# For IV dosing, blood samples were collected (using a pre-heparinized syringe) via the carotid artery or jugular vein catheter at t=2, 5, 15, 30, 60, 120, 180, 360, and 480 minutes post dosing. For PO dosing, blood samples were collected (using a pre-heparinized syringe) via the carotid artery or jugular vein catheter before dosing and at t=5, 15, 30, 60, 120, 180, 360, and 480 minutes post dosing. For some nitrone compounds a 1440 minutes (24 hours) sample was also taken for both IV and PO administrations. About 250 μL of blood was obtained at each time point from the animals. Equal volumes of 0.9% normal saline were replaced to prevent dehydration. The whole blood samples were maintained on ice until centrifugation. Blood samples were then centrifuged at 14,000 rpm for 10 minutes at 4° C. and the upper plasma layer transferred into a clean vial and stored at −80° C. The resulting plasma samples were then analyzed by mass spectroscopy using standard methods.
# All the samples from above assays were analyzed on a PE-Sciex API 3000 triple quadrupole with a Turbo Ion Spray source. Nitrone compounds of this invention were separated from the matrix via a linear gradient reverse-phase chromatography using a C18 column, such as Thermo BDS Hypersil C18 (100×4.6 mm, 5 micron particle, 120A pore size). The mobile Phases were:
# Nitrone compounds were detected by the mass spectrometer in the positive ion multiple reaction monitoring mode (MRM). For quantitative analysis, a standard curve was prepared by spiking a stock solution of the nitrone compound to the appropriate matrix to achieve a quantitation curve range and analyzed the standards in the same manner as the samples.
# Pharmacokinetic parameters of the aryl nitrone compounds were determined by a noncompartmental analysis using WinNonlin-Pro (Version 4.1, Pharsight Corporation). Average and standard deviation of the parameters were calculated using standard formulas in Microsoft Excel.
molecule,measurement,setting,value
"2(3)-tert-butylhydroquinone monomethyl ether [BHA, reference compound]",EC50,[1],< 10 µM
"COC(=O)c1ccccc1/C=[N+](\[O-])C(C)(C)C [Compound 1, N-(tert-Butyl)-C[2-(methoxycarbonyl)phenyl]nitrone]",EC50,[1],500 to 1000 µM
"COC(=O)c1ccccc1/C=[N+](\[O-])C1CCCCC1 [Compound 2, N-Cyclohexyl-C-[2-(methoxycarbonyl)phenyl]nitrone]",EC50,[1],> 1000 µM
"COC(=O)c1ccccc1/C=[N+](\[O-])Cc1ccccc1 [Compound 3, N-Benzyl-C-[2-(methoxycarbonyl)phenyl]nitrone]",EC50,[1],500 to 1000 µM
"COC(=O)c1c(/C=[N+](\[O-])C(C)(C)C)cc(OC)cc1OC [Compound 4, N-(tert-Butyl)-C-[2-(methoxycarbonyl)-3,5-dimethoxyphenyl]-nitrone]",EC50,[1],100 to 500 µM
"COC(=O)c1c(/C=[N+](\[O-])C2CCCCC2)cc(OC)cc1OC [Compound 5, N-Cyclohexyl-C-[2-(methoxycarbonyl)-3,5-dimethoxyphenyl]-nitrone]",EC50,[1],100 to 500 µM
"COC(=O)c1c(/C=[N+](\[O-])Cc2ccccc2)cc(OC)cc1OC [Compound 6, N-Benzyl-C-[2-(methoxycarbonyl)-3,5-dimethoxyphenyl]-nitrone]",EC50,[1],100 to 500 µM
"CC(C)(C)/[N+]([O-])=C/c1ccccc1C(=O)O [Compound 7, N-(tert-Butyl)-C-(2-carboxyphenyl)nitrone]",EC50,[1],100 to 500 µM
"O=C(O)c1ccccc1/C=[N+](\[O-])C1CCCCC1 [Compound 8, N-Cyclohexyl-C-(2-carboxyphenyl)nitrone]",EC50,[1],10 to 100 µM
"O=C(O)c1ccccc1/C=[N+](\[O-])Cc1ccccc1 [Compound 9, N-Benzyl-C-(2-carboxyphenyl)nitrone]",EC50,[1],10 to 100 µM
"COc1cc(/C=[N+](\[O-])C(C)(C)C)c(C(=O)O)c(OC)c1 [Compound 10, N-(tert-Butyl)-C-(2-carboxy-3,5-dimethoxyphenyl)nitrone]",EC50,[1],500 to 1000 µM
"COc1cc(/C=[N+](\[O-])C2CCCCC2)c(C(=O)O)c(OC)c1 [Compound 11, N-Cyclohexyl-C-(2-carboxy-3,5-dimethoxyphenyl)nitrone]",EC50,[1],10 to 100 µM
"COc1cc(/C=[N+](\[O-])Cc2ccccc2)c(C(=O)O)c(OC)c1 [Compound 12, N-Benzyl-C-(2-carboxy-3,5-dimethoxyphenyl)nitrone]",EC50,[1],10 to 100 µM
"CN(C)C(=O)c1ccccc1/C=[N+](\[O-])C(C)(C)C [Compound 16, N-(tert-Butyl)-C-[2-(N,N-dimethylcarbamoyl)phenyl]nitrone]",EC50,[1],100 to 500 µM
"CN1CCN(S(=O)(=O)c2ccc(/C=[N+](\[O-])C(C)(C)C)cc2)CC1 [Compound 22, N-(tert-Butyl)-C-[4-(4-methyl-piperazine-1-sulfonyl)phenyl]nitrone]",EC50,[1],> 1000 µM
same,Cmax,[2],703 ng/mL
same,clearance,[2],36.8 mL/min/kg
same,Vd,[2],1.83 L/kg
same,Tmax,[2],14.4 min
same,bioavailability,[2],15.6%
same,half-life,[2],34.2 min
"CCNS(=O)(=O)c1ccc(/C=[N+](\[O-])C(C)(C)C)cc1 [Compound 24, N-(tert-Butyl)-C-[4-(ethylsulfamoyl)phenyl]nitrone]",EC50,[1],> 1000 µM
same,Cmax,[2],198 ng/mL
same,clearance,[2],59 mL/min/kg
same,Vd,[2],2.58 L/kg
same,Tmax,[2],12 min
same,bioavailability,[2],7.19%
same,half-life,[2],31.2 min
"CC(C)(C)/[N+]([O-])=C/c1ccc(S(=O)(=O)Nc2ccc(F)cc2)cc1 [Compound 25, N-(tert-Butyl)-C-[4-(4-fluoro-phenylsulfamoyl)phenyl]nitrone]",EC50,[1],> 1000 µM
same,Cmax,[2],10 ng/mL
same,clearance,[2],29.3 mL/min/kg
same,Vd,[2],1.12 L/kg
same,Tmax,[2],15 min
same,bioavailability,[2],0.85%
same,half-life,[2],25.8 min
"CC(C)(C)/[N+]([O-])=C/c1ccc(S(=O)(=O)N2CCCCC2)cc1 [Compound 28, N-(tert-Butyl)-C-[4-(piperidine-1-sulfonyl)phenyl]nitrone]",EC50,[1],> 1000 µM
same,Cmax,[2],134 ng/mL
same,clearance,[2],19 mL/min/kg
same,Vd,[2],19.9 L/kg
same,Tmax,[2],64.8 min
same,bioavailability,[2],13.8%
same,half-life,[2],782 min
"CC(C)(C)/[N+]([O-])=C/c1ccc(S(=O)(=O)N2CCCC2)cc1 [Compound 29, N-(tert-Butyl)-C-[4-(pyrrolidine-1-sulfonyl)phenyl]nitrone]",EC50,[1],> 1000 µM
same,Cmax,[2],114 ng/mL
same,clearance,[2],38 mL/min/kg
same,Vd,[2],0.97 L/kg
same,Tmax,[2],11.4 min
same,bioavailability,[2],4.3%
same,half-life,[2],17.4 min
"COC(=O)c1[nH]c2ccccc2c1/C=[N+](\[O-])C(C)(C)C [Compound 77, N-(tert-Butyl)-C-[2-(methoxycarbonyl)-1H-indol-3-yl]nitrone]",EC50,[1],> 1000 µM
"COC(=O)c1[nH]c2ccccc2c1/C=[N+](\[O-])C1CCCCC1 [Compound 78, N-Cyclohexyl-C-[2-(methoxycarbonyl)-1H-indol-3-yl]nitrone]",EC50,[1],> 1000 µM
"COC(=O)c1[nH]c2ccccc2c1/C=[N+](\[O-])Cc1ccccc1 [Compound 79, N-Benzyl-C[2-(methoxycarbonyl)-1H-indol-3-yl]nitrone]",EC50,[1],> 1000 µM
"CC(C)(C)[N+]([O-])=Cc1ccccc1 [PBN, C-(phenyl)-N-(tert-butyl)nitrone, reference compound]",EC50,[1],> 1000 µM
"CC(C)(C)[N+]([O-])=Cc1ccccc1S(=O)(=O)O [SPBN, C-(2-sulfophenyl)-N-(tert-butyl)nitrone, sodium salt, reference compound]",EC50,[1],> 1000 µM
"Cc1c(C)c2c(c(C)c1O)CCC(C)(C(=O)O)O2 (stereo not shown) [Trolox, 6-hydroxy-2,5,7,8-tetramethylchromane-2-carboxylic acid, reference compound]",EC50,[1],< 10 µM
